biological target: T1, Ephrin type-B receptor 4 (Homo sapiens, UniProt P54760); experiment: EphB4-ephrin-B2 interaction antagonists, dose response, biochemical, TNYL-RAW peptide displacement (AID 835)
T1 sequence (P54760 whole entry): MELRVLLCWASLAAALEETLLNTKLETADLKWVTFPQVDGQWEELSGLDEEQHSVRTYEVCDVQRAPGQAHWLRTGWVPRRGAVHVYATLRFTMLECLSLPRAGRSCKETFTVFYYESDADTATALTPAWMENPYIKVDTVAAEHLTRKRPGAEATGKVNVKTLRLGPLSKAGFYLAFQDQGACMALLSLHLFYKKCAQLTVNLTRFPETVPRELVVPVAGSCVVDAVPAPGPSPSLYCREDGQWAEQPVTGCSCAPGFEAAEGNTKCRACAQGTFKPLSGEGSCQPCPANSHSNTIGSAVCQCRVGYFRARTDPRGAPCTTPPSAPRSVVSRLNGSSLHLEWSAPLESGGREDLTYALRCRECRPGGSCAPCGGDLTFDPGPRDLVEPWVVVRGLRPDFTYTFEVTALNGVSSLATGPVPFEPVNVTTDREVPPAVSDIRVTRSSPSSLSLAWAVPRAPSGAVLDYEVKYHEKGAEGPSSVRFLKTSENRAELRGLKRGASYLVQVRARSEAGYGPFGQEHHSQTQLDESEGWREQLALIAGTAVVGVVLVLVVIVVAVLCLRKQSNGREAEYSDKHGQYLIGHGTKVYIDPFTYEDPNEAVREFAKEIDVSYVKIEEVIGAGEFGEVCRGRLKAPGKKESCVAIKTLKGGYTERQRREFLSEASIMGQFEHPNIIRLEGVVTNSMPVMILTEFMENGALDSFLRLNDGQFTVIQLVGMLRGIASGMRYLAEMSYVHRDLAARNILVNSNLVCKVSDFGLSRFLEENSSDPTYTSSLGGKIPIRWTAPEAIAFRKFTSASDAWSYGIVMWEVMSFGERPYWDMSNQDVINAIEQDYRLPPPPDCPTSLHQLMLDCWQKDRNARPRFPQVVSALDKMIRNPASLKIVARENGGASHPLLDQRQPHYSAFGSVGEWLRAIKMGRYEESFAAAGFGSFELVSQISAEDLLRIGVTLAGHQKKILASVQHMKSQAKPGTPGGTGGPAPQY

Row | IC50 [µM] | Compound
1 | > 79.4 | Cn1cc(Cl)c(C(=O)OCC(=O)Nc2ccccc2)n1 [(2-anilino-2-oxoethyl) 4-chloro-1-methylpyrazole-3-carboxylate]
2 | > 79.4 | O=C(/C=C/c1ccccc1Cl)NCc1ccccc1 [(E)-3-(2-chlorophenyl)-N-(phenylmethyl)-2-propenamide]
3 | > 79.4 | O=C(O)/C(=C\c1ccco1)NC(=O)c1cccc2ccccc12 [(E)-3-(furan-2-yl)-2-(naphthalene-1-carbonylamino)prop-2-enoic acid]
4 | > 79.4 | CCOC(=O)c1c(C)oc2c1c1c(c3ccccc32)OCN(Cc2cccnc2)C1 [MLS000043717]
5 | > 79.4 | CCCCNC(=O)C1C2C=CC3(CN(Cc4ccccc4Cl)C(=O)C13)O2 (stereo not drawn) [MLS000044497]
6 | > 79.4 | CCOC(=O)C1=C(c2ccccc2)N2C=CS(=O)(=O)NC2S1 (stereo not drawn) [MLS000048572]
7 | > 79.4 | CN(c1ccccc1C(=O)Nc1ccccc1C(=O)NCc1ccco1)S(C)(=O)=O [MLS000049900]
8 | > 79.4 | CCCn1c(NC(=O)C2COc3ccccc3O2)nc2ccccc21 (stereo not drawn) [MLS000053418]
9 | > 79.4 | O=C(CSc1nnnn1Cc1ccccc1)Nc1ccc2c(c1)OCO2 [MLS000067975]
10 | > 79.4 | CCC(C)(C)NC(=O)C(c1ccco1)N(C(=O)c1csnn1)c1cccc(F)c1 (stereo not drawn) [MLS000074093]
11 | > 79.4 | CC1(C)Cc2ccccc2-c2nnc(SCC(=O)Nc3nc4ccccc4s3)n21 [MLS000077330]
12 | > 79.4 | O=C(CN(Cc1cccs1)C(=O)CSc1nnc(COc2ccccc2)o1)NC1CCCC1 [MLS000077370]
13 | > 79.4 | CCOc1ccc(C(CCc2ccccc2)NC(=O)c2ccccc2F)cc1OCC (stereo not drawn) [MLS000544814]
14 | > 79.4 | CCOc1ccc(NC(=O)C(C)Oc2ccccc2C(=O)Nc2ccc(C)c(Cl)c2)cc1 (stereo not drawn) [MLS000581136]
15 | 5.3 | COCCCNc1c(O)nc2cccc3c2c1-c1ccccc1C3=O [SMR000017250]
16 | 0.8 | O=C1c2ccccc2-c2onc3ccc(NCCCn4ccnc4)c1c23 [SMR000044769]

Second part, the molecule before the results:

Row | Compound | IC50 [µM]
17 | Cc1cc(N2CCN(c3ccccn3)CC2)n2cc(-c3ccccc3)nc2n1 [7-methyl-2-phenyl-5-(4-pyridin-2-ylpiperazin-1-yl)imidazo[1,2-a]pyrimidine] | > 79.4
18 | Cc1cc(OC(=O)c2ccco2)c2c3c(c(=O)oc2c1)CCCC3 [(3-methyl-6-oxidanylidene-7,8,9,10-tetrahydrobenzo[c]chromen-1-yl) furan-2-carboxylate] | > 79.4
19 | COc1ccccc1C1CC(c2c(O)nc3ccc(Cl)cc3c2-c2ccccc2)=NN1S(C)(=O)=O (stereo not drawn) [(3Z)-6-chloranyl-3-[5-(2-methoxyphenyl)-1-methylsulfonyl-pyrazolidin-3-ylidene]-4-phenyl-quinolin-2-one] | > 79.4
20 | CN1C(=O)S/C(=C/c2cccnc2)C1=O [(5E)-3-methyl-5-(3-pyridinylmethylidene)thiazolidine-2,4-dione] | > 79.4
21 | O=C(/C=C/c1cccc([N+](=O)[O-])c1)NCCN1CCOCC1 [(E)-N-(2-morpholin-4-ylethyl)-3-(3-nitrophenyl)prop-2-enamide] | > 79.4
22 | O=C(NCCCN1CCCC1=O)NC12CC3CC(CC(C3)C1)C2 [MLS000050547] | > 79.4
23 | O=C(NC(Cc1ccccc1)c1nc2ccccc2[nH]1)C1CC(=O)N(c2ccc3c(c2)OCCO3)C1 (stereo not drawn) [MLS000053466] | > 79.4
24 | CCn1c(CSc2nccn2C)nc2cc(C(=O)O)ccc21 [MLS000058666] | > 79.4
25 | CCOc1cc(N2CCOCC2)c(OCC)cc1NC(=O)COc1cccc2cccnc12 [MLS000060380] | > 79.4
26 | O=S1(=O)c2cccc3cccc(c23)N1Cc1nnc(-c2ccccc2Br)o1 [MLS000081705] | > 79.4
27 | COc1cccc(OC)c1-c1nn2c(-c3cc(-c4ccccc4)n[nH]3)nnc2s1 [MLS000083027] | > 79.4
28 | CC(=O)Nc1cccc(NC(=O)CSc2nnc(Cc3cccn3C)n2-c2ccc(C)cc2)c1 [MLS000092946] | > 79.4
29 | CC(=O)Nc1ccc(OCC=C(Cl)Cl)cc1 [MLS000107919] | > 79.4
30 | O=C(Nc1ccccc1C(=O)N1CCOCC1)c1ccncc1 [MLS000109827] | > 79.4
31 | O=C(Nc1ccc2c(c1)OCO2)C1CC(c2ccc(F)cc2)=NO1 (stereo not drawn) [MLS000520439] | > 79.4
32 | COc1ccc(Cn2nnnc2C(c2cc3ccc(OC)cc3nc2O)N2CCC(C)CC2)cc1 (stereo not drawn) [MLS000523343] | > 79.4
33 | COc1ccc(C(C)NC(=O)c2ccccc2)cc1 (stereo not drawn) [MLS000525960] | > 79.4
34 | COCc1nnc(NC(=O)CC(c2ccccc2)c2ccccc2)s1 [MLS000528014] | > 79.4
35 | CN(C(=O)N1CCN(c2ccccn2)CC1)c1ccccc1 [MLS000534907] | > 79.4
36 | O=C(N/N=C/c1ccncc1)c1cc([N+](=O)[O-])cc([N+](=O)[O-])c1O [MLS000541056] | > 79.4
37 | O=[N+]([O-])/C=C/c1cn(Cc2ccc(F)cc2)c2ccccc12 [MLS000577100] | > 79.4
38 | O=C(Nc1nc2n(n1)C(c1ccc(Cl)cc1)CC(c1ccc(Cl)cc1)N2)c1ccco1 (stereo not drawn) [SMR000045014] | > 79.4
39 | CCn1c(CSc2nnc(-c3cccnc3)n2-c2ccccc2C)nc2cc(C(=O)O)ccc21 [SMR000067019] | 11.1
40 | O=C1Nc2ccccc2/C1=N/Nc1nc2ccccc2s1 [SMR000123161] | > 79.4
41 | Cc1[nH]c2ccccc2c1/C=C1\N=C(c2ccc(C(F)(F)F)cc2)OC1=O [SMR000152363] | > 79.4
42 | Oc1ccccc1C=Nn1c(-c2cccs2)n[nH]c1=S [SMR000168763] | > 79.4
43 | COC(=O)CSC1=NC2=C(C(=O)CCC2)C(c2ccc(C)cc2)C1C#N (stereo not drawn) [methyl 2-[[3-cyano-4-(4-methylphenyl)-5-oxo-4,6,7,8-tetrahydro-1H-quinolin-2-yl]sulfanyl]acetate] | > 79.4
